Reference: ChEMBL document CHEMBL4673406, “Discovery and Preclinical Evaluation of BMS-986242, a Potent, Selective Inhibitor of Indoleamine-2,3-dioxygenase 1” (ACS Med Chem Lett, 2021)

Assays:
[1] = in vitro; conditions: human, liver microsomes
Description: Metabolic stability in human liver microsomes assessed as parent compound remaining at 0.5 uM measured after 10 mins

[2] = in vitro; conditions: mouse, liver microsomes
Description: Metabolic stability in mouse liver microsomes assessed as parent compound remaining at 0.5 uM measured after 10 mins

[3] = target: Indoleamine 2,3-dioxygenase 1 (Mus musculus, UniProt P28776); assay: Inhibition of IDO1 in IFNgamma-stimulated mouse M109 cells preincubated for 2 hrs followed by IFNgamma stimulation and measured after 18 hrs by; type: cell-based
Sequence of Indoleamine 2,3-dioxygenase 1 (Mus musculus, UniProt P28776) (P28776 whole entry): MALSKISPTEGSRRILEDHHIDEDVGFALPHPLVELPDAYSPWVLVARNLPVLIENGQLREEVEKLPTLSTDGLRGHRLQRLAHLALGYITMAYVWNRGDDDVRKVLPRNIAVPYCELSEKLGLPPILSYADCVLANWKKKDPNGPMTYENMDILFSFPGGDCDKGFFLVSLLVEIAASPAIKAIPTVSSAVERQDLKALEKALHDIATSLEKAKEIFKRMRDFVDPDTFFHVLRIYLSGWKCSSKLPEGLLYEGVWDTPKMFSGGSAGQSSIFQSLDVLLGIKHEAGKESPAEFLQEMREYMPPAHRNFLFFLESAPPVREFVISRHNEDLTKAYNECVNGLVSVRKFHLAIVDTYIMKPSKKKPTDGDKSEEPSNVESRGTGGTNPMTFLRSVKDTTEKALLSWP

[4] = target: T1, Indoleamine 2,3-dioxygenase 1 (Homo sapiens, UniProt P14902); assay: Inhibition of IDO1 in IFNgamma/LPS-stimulated human whole blood preincubated for 4 hrs followed by IFNgamma/LPS stimulation and incubated for 18 hrs by Rapid-fire mass spectrometry analysis; type: tissue-based
T1 sequence (P14902 whole entry): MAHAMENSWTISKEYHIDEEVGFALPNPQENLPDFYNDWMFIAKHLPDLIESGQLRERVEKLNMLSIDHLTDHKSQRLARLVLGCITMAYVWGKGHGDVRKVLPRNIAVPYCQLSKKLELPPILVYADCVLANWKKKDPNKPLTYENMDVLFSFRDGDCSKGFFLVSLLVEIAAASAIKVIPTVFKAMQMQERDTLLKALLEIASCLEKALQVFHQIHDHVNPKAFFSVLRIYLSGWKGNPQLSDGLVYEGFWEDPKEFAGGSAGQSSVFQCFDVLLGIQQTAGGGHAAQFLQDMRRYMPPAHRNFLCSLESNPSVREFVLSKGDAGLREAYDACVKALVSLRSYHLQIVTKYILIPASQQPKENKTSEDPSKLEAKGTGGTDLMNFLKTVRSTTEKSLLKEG

[5] = target: T1, Indoleamine 2,3-dioxygenase 1; assay: Inhibition of IDO1 in IFNgamma-stimulated human HeLa cells preincubated for 2 hrs followed by IFNgamma stimulation and measured after 18 hrs by
[6] = Aqueous solubility of the compound at pH 6.5; type: physicochemical; conditions: buffer
[7] = Solubility of the compound at pH 6.5 to 7.4; type: physicochemical; conditions: buffer
[8] = in vivo; conditions: nu/nu, mouse, tumor, po, 60 mg/kg
Description: AUC (0 to 24 hrs) in nu/nu mouse xenografted with human SK-OV-3 cells measured in tumor at 60 mg/kg, po qd by uHPLC-MS/MS analysis

[9] = target: Indoleamine 2,3-dioxygenase 1 (Mus musculus) (UniProt P28776); assay: In vivo inhibition of IDO1 in nu/nu mouse xenografted with human SK-OV-3 cells assessed as reduction in kynurenine level at 60 mg/kg, po qd by HPLC-MS/MS analysis relative to control; type: functional, organism-based
Sequence of Indoleamine 2,3-dioxygenase 1 (Mus musculus) (P28776 whole entry, looked up): as the sequence (P28776 whole entry) above

[10] = AUC (0 to 24 hrs) in nu/nu mouse xenografted with human SK-OV-3 cells measured in tumor at 100 mg/kg, po bid by uHPLC-MS/MS analysis; type: ADME, organism-based; design: time < 24 hr, route oral, dose 100 mg/kg

remaining at 10 min, 0.5 µM [1] | remaining at 10 min, 0.5 µM [2] | IC50 [3] | IC50 [4] | IC50 [5] | solubility [6] | solubility [7] | AUC at 24 h [8] | inhibition [9] | AUC at 24 h [10] | Compound
52% | 14% | 67 nM | 280 nM | 20 nM | – | – | – | – | – | C[C@@H](NC(=O)Nc1ccc(Cl)cc1)[C@H]1CC[C@@H](c2ccnc3ccc(F)cc32)CC1
56% | 32% | 772 nM | 158 nM | 261 nM | – | – | – | – | – | C[C@@H](CNC(=O)c1ccc(Cl)cc1)[C@H]1CC[C@@H](c2ccnc3ccc(F)cc32)CC1
2% | 4% | 20 nM | 35 nM | 7 nM | < 1 µg/mL | – | – | – | – | COc1ccc(C(=O)N[C@H](C)[C@H]2CC[C@@H](c3ccnc4ccc(F)cc43)CC2)cc1N1CCOCC1
34% | 2% | > 1000 nM | > 1000 nM | 745 nM | – | – | – | – | – | C[C@@H](NCc1ccc(Cl)cc1)[C@H]1CC[C@@H](c2ccnc3ccc(F)cc32)CC1
59% | 70% | 3 nM | 22 nM | 2 nM | – | < 1 µg/mL | – | – | – | C[C@@H](NC(=O)c1ccc(-c2ccccc2)cc1)[C@H]1CC[C@@H](c2ccnc3ccc(F)cc32)CC1
39% | 9% | 48 nM | 97 nM | 7 nM | – | – | – | – | – | C[C@@H](NC(=O)c1cccc(Cl)c1)[C@H]1CC[C@@H](c2ccnc3ccc(F)cc32)CC1
9% | 10% | 56 nM | 579 nM | – | – | – | – | – | – | C[C@@H](NC(=O)C12CCC(Cl)(CC1)CC2)[C@H]1CC[C@@H](c2ccnc3ccc(F)cc32)CC1
80% | 80% | 62 nM | 44 nM | 7 nM | – | – | – | – | – | C[C@@H](CNc1ccc(Cl)cc1)[C@H]1CC[C@@H](c2ccnc3ccc(F)cc32)CC1
21% | 7% | 215 nM | 135 nM | 12 nM | – | – | – | – | – | C[C@@H](NC(=O)c1ccccc1Cl)[C@H]1CC[C@@H](c2ccnc3ccc(F)cc32)CC1
73% | 51% | 92 nM | 80 nM | 10 nM | – | – | – | – | – | COc1ncc(NC(=O)[C@H](C)[C@H]2CC[C@@H](c3ccnc4ccc(F)cc43)CC2)cn1
19% | 5% | 870 nM | > 1000 nM | 67 nM | – | – | – | – | – | C[C@H](NC(=O)[C@H](C)[C@H]1CC[C@@H](c2ccnc3ccc(F)cc32)CC1)c1ccc(Cl)cc1
< 1% | < 1% | 287 nM | 470 nM | 18 nM | – | – | – | – | – | C[C@@H](C(=O)NC1CCCCC1)[C@H]1CC[C@@H](c2ccnc3ccc(F)cc32)CC1
8% | 2% | 651 nM | 779 nM | 125 nM | – | – | – | – | – | C[C@@H](NC(=O)Cc1ccc(Cl)cc1)[C@H]1CC[C@@H](c2ccnc3ccc(F)cc32)CC1
6% | 5% | 86 nM | 294 nM | 12 nM | – | – | – | – | – | C[C@@H](NC(=O)C1CCCCC1)[C@H]1CC[C@@H](c2ccnc3ccc(F)cc32)CC1
48% | 12% | 12 nM | 28 nM | 4 nM | – | – | – | – | – | C[C@@H](c1nc2ccc(Cl)cc2[nH]1)[C@H]1CC[C@@H](c2ccnc3ccc(F)cc32)CC1
84% | 31% | – | – | – | – | – | 34.9 µM·h | 61% | – | C[C@@H](C(=O)Nc1ccc(Cl)cc1)[C@H]1CC[C@@H](c2ccnc3ccc(F)cc32)CC1
– | – | – | – | – | – | – | – | – | 48 µM·h | NS(=O)(=O)NCCNc1nonc1C(=NO)Nc1ccc(F)c(Br)c1 [EPACADOSTAT]
29% | < 1% | > 1000 nM | 484 nM | > 1000 nM | – | – | – | – | – | C[C@@H](NS(=O)(=O)c1ccc(Cl)cc1)[C@H]1CC[C@@H](c2ccnc3ccc(F)cc32)CC1
